This is an account of results in patent EP1527784B1, “Method for extracting antineoplastic components from Bupleurum scorzonerifolium and composition comprising lactones” (Buddhist Tzu Chi General Hospital, priority 2003, dated 2005).

The test system of one experiment is A549-T12. In words: Annexin V-FLOUS / PI flow cytometry for apoptosis, Taxol-resistant cells. The settings on record: Homo sapiens, 48 hours, untreated group 6.8%, read-out: ratio of apoptotic tumor cell. The class given is cell-based. The text has this: (§1) The following embodiments are described with Taxol-resistant tumor cell A549-T12 (passage cultured from lung cancer cell line A549 cells with low concentration of taxol) as an example to test the effect of BS-A and its pure compounds (these represent chaihulactone and chaihulactone analogues). Flow cytometry, cytotoxicity, and biomolecular examinations are adopted to estimate the mechanism of Bupleurum scorzonerifolium extracts on Taxol-resistant tumor cells.
FIGs. […] Among these figures, X-axis represents the fluorescent brightness of tumor cells with antibody Annexin V-FLOUS whereas Y-axis represents the fluorescent brightness of tumor cell with antibody PI. […] This indicates isochaihulactone has better induction for apoptosis of Taxol-resistant tumor cell line than other chaihulactone analogues.

In the next experiment the test system is tumor cells. Particulars: in two years; initial treatment stage; cited from earlier work.
In the next experiment the test system is β-tubulin. The experiment in a line: Immunoblot of soluble and particular (polymerized) β-tubulin in A549 cells. In kind it is cell-based, human. The settings on record: FIG. 7. (In western blotting, separated proteins are transferred to a membrane and probed.)
For experiment [1], the system named is A549 cells. The experiment in a line: Cell cycle analysis by flow cytometry (PI). The class given is cell-based, human. Particulars: FIG. 4; concentration not given. The protocol:
Furthermore, flow cytometry is employed to observe the changes in cell cycle before and after the addition of different extracts from Bupleurum scorzonerifolium to A549 cells. In figures 2A through to 2D, X-axis represents chromosome numbers (2N, 4N, etc.) of tumor cells in contact with the antibody, Y-axis represents the fluorescent brightness of Propidium Iodide (PI). It is clearly noted that before treatment lung cancer cell line A549 is mainly at stage of G0/G1, but when 60 µg/ml of BS-AE and 600 µg/ml of BS-ME are added to the tumor cells, the tumor cells are arrested at G2/M stage. This is particularly the case for BS-ME.
In general terms: In flow cytometry, cells or beads pass a laser one at a time.

Another experiment deals with p53. The experiment in a line: Western blotting of tumor suppressor p53. The class given is cell-based, human. The settings on record: A549 cells, FIG. 5, 1 day or 3 days.
The next experiment concerns A549-T12 cells. In words: MTT cytotoxicity assay on Taxol-resistant lung cancer cells. Particulars: Taxol-resistant human lung cancer cell line A549-T12; read-out: concentration that causes 50% growth inhibition (IC50). In kind it is cell-based.
From the text: On the other hand, when the BS-AE containing γ-butyrolactone heterocyclic compounds, such as isochaihulactone and BS-AE are applied on Taxol-resistant tumor cell line, for example, human lung cancer cell line A549-T12, they also show anti-tumor effects on the resistant tumor cells. […] Furthermore, the tumor-suppressing effects of those Bupleurum scorzonerifolium extracts after isolated by the extraction method of this invention are more prominent.
as §1
Furthermore, a lower dose (2-4 µg/ml) of isochaihulactone is required to induce apoptosis on A549-T12 cells than that of A549 cells (8-10 µg/ml).

Another experiment concerns p21. In words: Western blotting of tumor suppressor p21. Particulars: A549 cells, FIG. 5, 1 day or 3 days. The class given is cell-based, human.
In experiment [2] the test system is A549 cells. In words: Annexin V-FLOUS / PI flow cytometry for apoptosis. In kind it is cell-based. The settings on record: Homo sapiens, 48 hours, untreated group 3.8%, read-out: proportion of cell death (apoptosis). On the procedure:
In A549 cells, 20 µM of Isochaihulactone and 60 µg/ml of BS-AE are added to A549 cell line. After 48 hours of treatment, flow cytometry is utilized to detect the staining results between Annexin V-FLOUS and PI. In FIGs. 3A through to 3C, X-axis represents the fluorescent brightness of tumor cells with antibody Annexin V-FLOUS, and Y-axis represents the fluorescent brightness of tumor cells with antibody PI. From the diagrams, it was shown that the untreated group has only 3.8% of apoptosis, whereas A549 cells treated with Isochaihulactone and BS-AE has much higher proportion of cell death (about 30-40%).

The subject of experiment [3] is human hepatoma cell line J5, ovarian cancer cell line OVCAR-3, human malignant glioblastoma cell line DBTRG-05MD, lung cancer cell line A549 and colorectal …. In words: MTT cytotoxicity screening of extracts and components on a tumor cell line panel. Particulars: MTT assay / drug screening; Table 1 cited but not given. The class given is cell-based. The protocol:
Each of the aforementioned heterocyclic compounds from each extract as well as the acetone crude extracts of Bupleurum scorzonerifolium are assayed to measure the antineoplastic activity. It was shown that majority of antineoplastic components of Bupleurum scorzonerifolium are retained in the BS-AE and BS-ME. The BS-HE and BS-CE hardly have any tumor-suppressing effects. Besides, the extracts can be further purified using chromatography method (e.g. low pressure liquid chromatography or high performance liquid chromatography (HPLC)), such that fractions are collected separately after each elution to obtain the pure compounds mentioned above.
Moreover, from chemical analysis of the main representative molecular structure of the eighth component, it was observed that the compound shares a common feature shown in formula (I) as having a γ-butyrolactone-centred heterocyclic compound with Z configuration or E configuration at carbon 2(5), or pharmacologically compatible salts, esters, ketones or their derivatives. [drawing 19] where the heterocyclic compound may have a 3R or 3S configuration, X can be N, O, S, or Se, andA, B can be selected from the following substituents: [drawing 20] where R1, R2, R3, R4, R5 can be selected from hydrogen atom, a halogen atom, a hydroxyl group, a sulfoxyl group, an amino group, a methoxyl group, and a nitro group. […]
For orientation: Tetrazolium dyes change colour on reduction, which living cells bring about.

Molecules are shown by their SMILES. Converted amounts (≈) assume the structure as drawn.

On to `COc1ccc(/C=C2\C(=O)OC[C@@H]2Cc2ccc3c(c2)OCO3)cc1OC` [BS-15, Isokaerophyllin], for which the cytotoxicity at 8 µg/mL with A549-T12 turned out to be 23.1%.
On to `CC(=O)O[C@H]1C(=O)[C@@]2(C)[C@H]([C@H](OC(=O)c3ccccc3)[C@]3(O)C[C@H](OC(=O)[C@H](O)[C@@H](NC(=O)c4ccccc4)c4ccccc4)C(C)=C1C3(C)C)[C@]1(OC(C)=O)CO[C@@H]1C[C@@H]2O` [Taxol, Paclitaxel], for which, in the experiment with tumor cells, the “improvement of survival rate of the patient” value is “about 15%”.
Take `COc1cc(/C=C2\C(=O)OC[C@@H]2Cc2ccc3c(c2)OCO3)cc(OC)c1OC` [isochaihulactone, Isochaihulactone]: in the experiment on β-tubulin, the “particular form (polymerized β-microtubule)” value is given as “increases” and the “soluble form (non-polymerized β-microtubule)” value is listed as “significantly diminishes”. Besides, the “cell cycle stage of tumor cells” value in the experiment on A549 cells [1] is given as “arrest at the stage G2/M”. Besides, in the experiment with A549-T12, the cytotoxicity at 8 µg/mL amounted to 30.6%. Moreover, in the experiment with p53, the “expression level of tumor suppressor p53” value was “increase in expression level”. The IC50 in the experiment on A549-T12 cells lay in the range of 2 to 4 µg/mL (≈ 5.02 to 10 µM). For the same molecule, the “expression level of tumor suppressor p21” value with p21 is on record as “increase in expression level”. In addition, the cytotoxicity at 20 µM in the experiment on A549 cells [2] was 30 to 40%. In addition, in experiment [3], the “antineoplastic effect (comparison among extracts and components)” value was “most prominent anti-tumor effects”.
